US8722849B2, “Polypeptides” (Novo Nordisk A/S, priority 2011, dated 2014)
≈ marks a conversion by molar mass, not a printed value. Where two headings read alike, the source gives them in different places. Starred links: 1 amine or outer side, 2 acyl side, 3 side chain; linkers in the order of their positions; H or OH if unused. Positions of bridges follow the written chain, without caps; N, C: chain ends. Residues, ends and D or L forms follow the SMILES beside them. *: point of attachment. C20 diacid = O=C(O)CCCCCCCCCCCCCCCCCCC(=O)*; γGlu = O=C(O)[C@H](CCC(=O)[*:2])N[*:1]

Columns and labels:
[1] = target: T1, human amylin receptor (amylin 3(a) receptor: human calcitonin receptor + RAMP-3) (Homo sapiens, UniProt O60896+P30988); test: Assay (II)a functional CRE-luciferase assay, human amylin receptor; type: cell-based; details: Table 2; BHK amylin 3(a)-receptor/CRE-luc cells
T1 construct: expressed in transfected cells; host or cells: BHK570
T1 sequence (P30988 25-474): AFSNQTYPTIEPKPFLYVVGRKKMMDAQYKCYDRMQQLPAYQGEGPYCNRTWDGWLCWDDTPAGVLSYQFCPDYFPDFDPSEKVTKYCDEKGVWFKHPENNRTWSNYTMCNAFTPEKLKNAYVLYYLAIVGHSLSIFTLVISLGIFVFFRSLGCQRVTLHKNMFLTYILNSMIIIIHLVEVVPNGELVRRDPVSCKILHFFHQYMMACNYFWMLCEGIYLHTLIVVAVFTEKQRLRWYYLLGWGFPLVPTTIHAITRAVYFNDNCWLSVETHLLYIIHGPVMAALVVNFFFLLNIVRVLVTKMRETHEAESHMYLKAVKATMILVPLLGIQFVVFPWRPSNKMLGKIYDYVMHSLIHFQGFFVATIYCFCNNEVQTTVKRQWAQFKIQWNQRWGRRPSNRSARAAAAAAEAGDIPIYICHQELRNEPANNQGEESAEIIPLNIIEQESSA
T1 sequence (O60896 24-148 partner): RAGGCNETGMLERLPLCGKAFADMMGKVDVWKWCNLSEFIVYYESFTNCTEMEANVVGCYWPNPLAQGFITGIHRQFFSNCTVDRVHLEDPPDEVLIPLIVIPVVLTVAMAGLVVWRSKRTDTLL

[2] = target: T2, human calcitonin receptor (Homo sapiens, UniProt P30988); test: Assay (II)a functional CRE-luciferase assay, human calcitonin receptor; type: cell-based; details: Table 7; human calcitonin (CTa) receptor
T2 construct: expressed in transfected cells; host or cells: BHK570
T2 sequence (P30988 25-474): T1 sequence (P30988 25-474)

[3] = Assay (III) ThT fibrillation assay for physical stability; type: physicochemical; details: ThT fibrillation assay
How it was run: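 Freshly prepared formulations, pH-adjusted, with 1 μM ThT; four or eight replicates incubated at 37 °C under 960 rpm orbital shaking. Fluorescence (ex 444/em 485 nm) read every 20 min; […]. Peptide concentration measured by RP-HPLC before and after the run.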

[4] = Assay (IV) determination of solubility; type: physicochemical
How it was run: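 Polypeptide in water (~500 nmol/ml) mixed 1:1 with 100 mM glycylglycine (pH 3.0–5.0) or bistrispropane (pH 6.0–8.0) buffers. Held 18 hours at room temperature, then centrifuged. Polypeptide remaining in solution quantified by HPLC.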

[5] = bistrispropane buffer, pH 6, pH 6.0, read-out: Solubility pH 6.0
[6] = bistrispropane buffer, pH 6.5, pH 6.5, read-out: Solubility pH 6.5
[7] = bistrispropane buffer, pH 7, pH 7.0, read-out: Solubility pH 7.0
[8] = bistrispropane buffer, pH 7.5, pH 7.5, read-out: Solubility pH 7.5
[9] = bistrispropane buffer, pH 8, pH 8.0, read-out: Solubility pH 8.0
[10] = glycylglycine buffer, pH 3, pH 3.0, read-out: Solubility pH 3.0
[11] = glycylglycine buffer, pH 4, pH 4.0, 18 hours at room temperature, Table 2, read-out: Solubility pH 4.0
[12] = glycylglycine buffer, pH 4, pH 4.0, read-out: Solubility pH 4.0
[13] = glycylglycine buffer, pH 5, pH 5.0, read-out: Solubility pH 5.0

EC50 [1]	EC50 [2]	ThT pH 4.0 lag time (h) [3]	solubility at 18 h [4, 5]	solubility at 18 h [4, 6]	solubility at 18 h [4, 7]	solubility at 18 h [4, 8]	solubility at 18 h [4, 9]	solubility at 18 h [4, 10]	solubility at 18 h [4, 11]	solubility at 18 h [4, 12]	solubility at 18 h [4, 13]	ThT pH 4.0 lag time [3]	Compound
0.153 nM	0.0945 nM	6 h	> 200 µM	189 µM (≈ 835 µg/mL)	91 µM (≈ 402 µg/mL)	136 µM (≈ 601 µg/mL)	> 200 µM	> 200 µM	> 200 µM	> 200 µM	> 200 µM	–	CC(C)C[C@H](NC(=O)[C@H](CCCNC(=N)N)NC(=O)[C@H](CCC(N)=O)NC(=O)[C@@H](NC(=O)[C@H](C)NC(=O)[C@@H]1CSSC[C@H](NC(=O)[C@H](CCCCN)NC(=O)CC[C@H](NC(=O)CCCCCCCCCCCCCCCCCCC(=O)O)C(=O)O)C(=O)N[C@@H](CC(N)=O)C(=O)N[C@@H]([C@@H](C)O)C(=O)N[C@@H](C)C(=O)N[C@@H]([C@@H](C)O)C(=O)N1)[C@@H](C)O)C(=O)N[C@@H](C)C(=O)N[C@@H](CCC(=O)O)C(=O)N[C@@H](Cc1ccccc1)C(=O)N[C@@H](CC(C)C)C(=O)N[C@@H](Cc1c[nH]cn1)C(=O)N[C@@H](Cc1c[nH]cn1)C(=O)N[C@@H](CO)C(=O)N[C@@H](CO)C(=O)N[C@@H](CC(N)=O)C(=O)N[C@@H](CC(N)=O)C(=O)N[C@@H](Cc1ccccc1)C(=O)NCC(=O)N[C@@H](C)C(=O)N1CCC[C@H]1C(=O)N[C@@H](CC(C)C)C(=O)N[C@@H](CO)C(=O)N[C@@H](CO)C(=O)N[C@H](C(=O)N[C@@H](CC(N)=O)C(=O)N[C@H](C(=O)NCC(=O)N[C@@H](CO)C(=O)N[C@@H](Cc1c[nH]cn1)C(=O)N[C@H](C(=O)N[C@@H](Cc1ccc(O)cc1)C(N)=O)[C@@H](C)O)C(C)C)[C@@H](C)O [Example 64, N-alpha-[(S)-4-Carboxy-4-(19-carboxynonadecanoylamino)butyryl]-[Glu14,His17,Ala25,Pro26,Ser28,Ser29,His35]-pramlintide] ({C20 diacid-γGlu}-KCNTATCATQRLAEFLHHSSNNFGAPLSSTNVGSHTY-NH2; disulfide 2-7 (inferred))
0.0965 nM	0.115 nM	>45 h	> 200 µM	166 µM (≈ 789 µg/mL)	15 µM (≈ 71.3 µg/mL)	24 µM (≈ 114 µg/mL)	60 µM (≈ 285 µg/mL)	> 200 µM	> 200 µM	> 200 µM	> 200 µM	>45 h	CC[C@H](C)[C@H](NC(=O)[C@@H]1CCCN1C(=O)CNC(=O)[C@H](Cc1ccccc1)NC(=O)[C@H](CC(N)=O)NC(=O)[C@H](CC(N)=O)NC(=O)[C@H](CO)NC(=O)[C@H](CO)NC(=O)[C@H](Cc1c[nH]cn1)NC(=O)[C@H](Cc1c[nH]cn1)NC(=O)[C@H](CC(C)C)NC(=O)[C@H](Cc1ccccc1)NC(=O)[C@H](CCC(=O)O)NC(=O)[C@H](C)NC(=O)[C@H](CC(C)C)NC(=O)[C@H](CCCNC(=N)N)NC(=O)[C@H](CCC(N)=O)NC(=O)[C@@H](NC(=O)[C@H](C)NC(=O)[C@@H]1CSSC[C@H](NC(=O)[C@H](CCCCN)NC(=O)[C@H](Cc2c[nH]cn2)NC(=O)[C@H](Cc2c[nH]cn2)NC(=O)CC[C@H](NC(=O)CCCCCCCCCCCCCCCCCCC(=O)O)C(=O)O)C(=O)N[C@@H](CC(N)=O)C(=O)N[C@@H]([C@@H](C)O)C(=O)N[C@@H](C)C(=O)N[C@@H]([C@@H](C)O)C(=O)N1)[C@@H](C)O)C(=O)N[C@@H](CC(C)C)C(=O)N1CCC[C@H]1C(=O)N1CCC[C@H]1C(=O)N[C@H](C(=O)N[C@@H](CC(N)=O)C(=O)N[C@H](C(=O)NCC(=O)N[C@@H](CO)C(=O)N[C@@H](Cc1c[nH]cn1)C(=O)N[C@H](C(=O)N[C@@H](Cc1ccc(O)cc1)C(N)=O)[C@@H](C)O)C(C)C)[C@@H](C)O [Example 67, N-alpha-[(S)-4-Carboxy-4-(19-carboxynonadecanoylamino)butyryl]-His-His-[Glu14,His17,His35]-pramlintide] ({C20 diacid-γGlu}-HHKCNTATCATQRLAEFLHHSSNNFGPILPPTNVGSHTY-NH2; disulfide 4-9 (inferred); C-terminus assumed)
0.0935 nM	0.43 nM	>45 h	> 200 µM	170 µM (≈ 788 µg/mL)	17 µM (≈ 78.8 µg/mL)	6 µM (≈ 27.8 µg/mL)	7 µM (≈ 32.4 µg/mL)	> 200 µM	> 200 µM	> 200 µM	> 200 µM	>45 h	CC[C@H](C)[C@H](NC(=O)[C@@H]1CCCN1C(=O)CNC(=O)[C@H](Cc1ccccc1)NC(=O)[C@H](CC(N)=O)NC(=O)[C@H](CC(N)=O)NC(=O)[C@H](CO)NC(=O)[C@H](CO)NC(=O)[C@H](Cc1c[nH]cn1)NC(=O)[C@H](CCCNC(=N)N)NC(=O)[C@H](CC(C)C)NC(=O)[C@H](Cc1ccccc1)NC(=O)[C@H](CCC(=O)O)NC(=O)[C@H](C)NC(=O)[C@H](CC(C)C)NC(=O)[C@H](CCCNC(=N)N)NC(=O)[C@H](CCC(N)=O)NC(=O)[C@@H](NC(=O)[C@H](C)NC(=O)[C@@H]1CSSC[C@H](NC(=O)[C@H](CCCCN)NC(=O)[C@H](Cc2c[nH]cn2)NC(=O)CC[C@H](NC(=O)CCCCCCCCCCCCCCCCCCC(=O)O)C(=O)O)C(=O)N[C@@H](CC(N)=O)C(=O)N[C@@H]([C@@H](C)O)C(=O)N[C@@H](C)C(=O)N[C@@H]([C@@H](C)O)C(=O)N1)[C@@H](C)O)C(=O)N[C@@H](CC(C)C)C(=O)N1CCC[C@H]1C(=O)N1CCC[C@H]1C(=O)N[C@H](C(=O)N[C@@H](CC(N)=O)C(=O)N[C@H](C(=O)NCC(=O)N[C@@H](CO)C(=O)N[C@@H](Cc1c[nH]cn1)C(=O)N[C@H](C(=O)N[C@@H](Cc1ccc(O)cc1)C(N)=O)[C@@H](C)O)C(C)C)[C@@H](C)O [Example 68, N-alpha-[(S)-4-Carboxy-4-(19-carboxynonadecanoylamino)butyryl]-His-[Glu14,Arg17,His35]-pramlintide] ({C20 diacid-γGlu}-HKCNTATCATQRLAEFLRHSSNNFGPILPPTNVGSHTY-NH2; disulfide 3-8 (inferred); C-terminus assumed)
0.101 nM	0.615 nM	>45 h	> 200 µM	158 µM (≈ 754 µg/mL)	6 µM (≈ 28.6 µg/mL)	2 µM (≈ 9.54 µg/mL)	24 µM (≈ 115 µg/mL)	> 200 µM	> 200 µM	> 200 µM	> 200 µM	>45 h	CC[C@H](C)[C@H](NC(=O)[C@@H]1CCCN1C(=O)CNC(=O)[C@H](Cc1ccccc1)NC(=O)[C@H](CC(N)=O)NC(=O)[C@H](CC(N)=O)NC(=O)[C@H](CO)NC(=O)[C@H](CO)NC(=O)[C@H](Cc1c[nH]cn1)NC(=O)[C@H](CCCNC(=N)N)NC(=O)[C@H](CC(C)C)NC(=O)[C@H](Cc1ccccc1)NC(=O)[C@H](CCC(=O)O)NC(=O)[C@H](C)NC(=O)[C@H](CC(C)C)NC(=O)[C@H](CCCNC(=N)N)NC(=O)[C@H](CCC(N)=O)NC(=O)[C@@H](NC(=O)[C@H](C)NC(=O)[C@@H]1CSSC[C@H](NC(=O)[C@H](CCCCN)NC(=O)[C@H](Cc2c[nH]cn2)NC(=O)[C@H](Cc2c[nH]cn2)NC(=O)CC[C@H](NC(=O)CCCCCCCCCCCCCCCCCCC(=O)O)C(=O)O)C(=O)N[C@@H](CC(N)=O)C(=O)N[C@@H]([C@@H](C)O)C(=O)N[C@@H](C)C(=O)N[C@@H]([C@@H](C)O)C(=O)N1)[C@@H](C)O)C(=O)N[C@@H](CC(C)C)C(=O)N1CCC[C@H]1C(=O)N1CCC[C@H]1C(=O)N[C@H](C(=O)N[C@@H](CC(N)=O)C(=O)N[C@H](C(=O)NCC(=O)N[C@@H](CO)C(=O)N[C@@H](Cc1c[nH]cn1)C(=O)N[C@H](C(=O)N[C@@H](Cc1ccc(O)cc1)C(N)=O)[C@@H](C)O)C(C)C)[C@@H](C)O [Example 69, N-alpha-[(S)-4-Carboxy-4-(19-carboxynonadecanoylamino)butyryl]-His-His-[Glu14,Arg17,His35]-pramlintide] ({C20 diacid-γGlu}-HHKCNTATCATQRLAEFLRHSSNNFGPILPPTNVGSHTY-NH2; disulfide 4-9 (inferred))
